# In patent US6867185B2 (Bristol-Myers Squibb Company, priority 2001, dated 2005):
# Structures can show the parent of a compound that is named as a salt.
# Assays:
# [1] = test system: HCV replicon in Huh7 cells; experiment: HCV replicon cell-based assay (replicon FRET assay); design: species or system HCV strain 1B; conditions: Hepatitis C virus, Huh-7, HCV replicon cell assay; EC50 ranges
# Excerpt: An HCV replicon whole cell system was established as described by Lohmann V, Korner F, Koch J, Herian U, Theilmann L, Bartenschlager R., Science 285 (5424):110-3 (1999). This system enabled us to evaluate the effects of our HCV Protease compounds on HCV RNA replication. Briefly, using the HCV strain 1B sequence described in the Lohmann paper (Assession number:AJ238799), an HCV cDNA was generated encoding the 5′ internal ribosome entry site (IRES), the neomycin resistance gene, the EMCV (encephalomyocarditis viurs)-IRES and the HCV nonstructural proteins, NS3-NS5B, and 3′ non-translated region (NTR). In vitro transcripts of the cDNA were transfected into the human hepatoma cell line, Huh7. […] Resulting cell lines were characterized for positive and negative strand RNA production and protein production over time.
# Huh7 cells, constitutively expressing the HCV replicon, were grown in Dulbecco's Modified Eagle Media (DMEM) containing 10% Fetal calf serum (FCS) and 1 mg/ml G418 (Gibco-BRL). Cells were seeded the night before (1.5×10^4 cells/well) in 96-well tissue-culture sterile plates. Compound and no compound controls were prepared in DMEM containing 4% FCS, 1:100 Penicillin/Streptomysin, 1:100 L-glutamine and 5% DMSO in the dilution plate (0.5% DMSO final concentration in the assay). Compound/DMSO mixes were added to the cells and incubated for 4 days at 37° C. After 4 days, plates were rinsed thoroughly with Phosphate-Buffered Saline (PBS) (3 times 150 μl). The cells were lysed with 25 μl of a lysis assay reagent containing the FRET peptide (RET S1, as described for the in vitro enzyme assay). The lysis assay reagent was made from 5× cell Luciferase cell culture lysis reagent(Promega #E153A) diluted to 1× with distilled water, NaCl added to 150 mM final, the FRET peptide diluted to 10 μM final from a 2 mM stock in 100% DMSO. The plate was then placed into the Cytofluor 4000 instrument which had been set to 340 nm excitation/490 emission, automatic mode for 21 cycles and the plate read in a kinetic mode. EC50 determinations were carried out as described for the IC50 determinations.
# [2] = biological target: T1, HCV NS3/4A protease complex, BMS strain (genotype 1a) (Hepatitis C virus genotype 1a, UniProt P27958, C1454S/C1711G); experiment: Recombinant HCV NS3/4A protease complex FRET peptide assay (BMS strain); format: biochemical; conditions: IC50, HCV NS3/4A protease FRET assay in vitro; IC50 ranges
# T1 construct: recombinant HCV NS3/4A protease complex (amino'acids 1027 to 1711); inferred from the pET21b vector and Ni-NTA purification; made in house; host or cells: Escherichia coli BL21 (DE3), pET21b
# T1 sequence (P27958 1027-1711 C1454S/C1711G, one chain of several): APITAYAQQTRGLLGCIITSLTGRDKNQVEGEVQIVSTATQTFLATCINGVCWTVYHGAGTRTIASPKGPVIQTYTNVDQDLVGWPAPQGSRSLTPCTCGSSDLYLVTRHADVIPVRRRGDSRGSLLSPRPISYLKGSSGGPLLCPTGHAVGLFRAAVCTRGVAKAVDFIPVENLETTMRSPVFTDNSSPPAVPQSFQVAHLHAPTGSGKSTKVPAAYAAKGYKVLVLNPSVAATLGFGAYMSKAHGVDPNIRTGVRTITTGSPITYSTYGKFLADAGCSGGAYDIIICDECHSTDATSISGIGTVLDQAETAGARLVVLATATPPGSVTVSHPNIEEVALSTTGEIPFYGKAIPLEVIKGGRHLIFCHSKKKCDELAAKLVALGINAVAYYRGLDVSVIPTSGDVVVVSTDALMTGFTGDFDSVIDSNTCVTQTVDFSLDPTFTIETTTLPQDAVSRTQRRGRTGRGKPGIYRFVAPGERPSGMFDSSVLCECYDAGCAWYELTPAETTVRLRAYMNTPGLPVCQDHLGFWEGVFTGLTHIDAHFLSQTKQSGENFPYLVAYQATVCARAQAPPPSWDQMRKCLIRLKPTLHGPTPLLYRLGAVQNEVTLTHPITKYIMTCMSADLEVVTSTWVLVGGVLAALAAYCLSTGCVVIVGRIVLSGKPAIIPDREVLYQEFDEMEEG
# Excerpt: The purpose of this in vitro assay was to measure the inhibition of HCV NS3 protease complexes, derived from the BMS, H77C or J4L6S strains, as described below, by compounds of the present invention. This assay provides an indication of how effective compounds of the present invention would be in inhibiting HCV proteolytic activity.
# Serum from an HCV-infected patient was obtained from Dr. T. Wright, San Francisco Hospital. An engineered full-length cDNA (compliment deoxyribonucleic acid) template of the HCV genome (BMS strain) was constructed from DNA fragments obtained by reverse transcription-PCR (RT-PCR) of serum RNA (ribonucleic acid) and using primers selected on the basis of homology between other genotype 1a strains. From the determination of the entire genome sequence, a genotype 1a was assigned to the HCV isolate according to the classification of Simmonds et al. (See P Simmonds, K A Rose, S Graham, S W Chan, F McOmish, B C Dow, E A Follett, P L Yap and H Marsden, J. Clin. Microbiol., 31 (6), 1493-1503 (1993)). […] The infectious clones, H77C (1a genotype) and J4L6S (1b genotype) were obtained from R. Purcell (N1H) and the sequences are published in Genbank (AAB67036, see Yanagi, M., Purcell, R. H., Emerson, S. U. and Bukh, J. Proc. Natl. Acad. Sci. U.S.A. 94 (16), 8738-8743 (1997); AF054247, see Yanagi, M., St Claire, M., Shapiro, M., Emerson, S. U., Purcell, R. H. and Bukh, J, Virology 244 (1), 161-172. (1998)).
# The BMS, H77C and J4L6S strains were used for production of recombinant NS3/4A protease complexes. DNA encoding the recombinant HCV NS3/4A protease complex (amino'acids 1027 to 1711) for these strains were manipulated as described by P. Gallinari et al. (see Gallinari P, Paolini C, Brennan D, Nardi C, Steinkuhler C, De Francesco R. Biochemistry. 38 (17):5620-32, (1999)). Briefly, a three-lysine solubilizing tail was added at the 3′-end of the NS4A coding region. The cysteine in the P1 position of the NS4A-NS4B cleavage site (amino acid 1711) was changed to a glycine to avoid the proteolytic cleavage of the lysine tag. Furthermore, a cysteine to serine mutation was introduced by PCR at amino acid position 1454 to prevent the autolytic cleavage in the NS3 helicase domain. The variant DNA fragment was cloned in the pET21b bacterial expression vector (Novagen)and the NS3/4A complex was expressed in Escherichia. coli strain BL21 (DE3) (Invitrogen) following the protocol described by P. Gallinari et al. (see Gallinari P, Brennan D, Nardi C, Brunetti M, Tomei L, Steinkuhler C, De Francesco R., J. Virol. 72 (8):6758-69 (1998)) with modifications. Briefly, NS3/4A expression was induced with 0.5 mM Isopropyl β-D-1-thiogalactopyranoside (IPTG) for 22 hr at 20° C. A typical fermentation (10L) yielded approximately 80 g of wet cell paste. The cells were resuspended in lysis buffer (10 mL/g) consisting of 25 mM N-(2-Hydroxyethyl)Piperazine-N′-(2-Ethane Sulfonic acid) (HEPES), pH 7.5, 20% glycerol, 500 mM Sodium Chloride (NaCl), 0.5% Triton-X100, 1 ug/ml lysozyme, 5 mM Magnesium Chloride (MgCl2), 1 ug/ml Dnasel, 5 mM β-Mercaptoethanol (OME), Protease inhibitor-Ethylenediamine Tetraacetic acid (EDTA) free (Roche), homogenized and incubated for 20 mins at 4° C. The homogenate was sonicated and clarified by ultra-centrifugation at 235000 g for 1 hr at 4° C. Imidazole was added to the supernatant to a final concentration of 15 mM and the pH adjusted to 8.0. The crude protein extract was loaded on a Nickel-Nitrilotriacetic acid (Ni-NTA) column pre-equilibrated with buffer B (25 mM HEPES, pH 8.0, 20% glycerol, 500 mM NaCl, 0.5% Triton-X100, 15 mM imidazole, 5 mM βME). The sample was loaded at a flow rate of 1 mL/min. The column was washed with 15 column volumes of buffer C (same as buffer B except with 0.2% Triton-X100). The protein was eluted with 5 column volumes of buffer D (same as buffer C except with 200 mM Imidazole). […]
Compound,EC50 [1],IC50 [2]
"COc1ccc2c(O[C@@H]3C[C@H]4C(=O)N[C@]5(C(=O)NS(=O)(=O)C6CCC6)CC5CCCCCC[C@H](NC(=O)OC(C)(C)C)C(=O)N4C3)cc(-c3ccccc3)nc2c1 (stereo partly drawn) [Compound 18, (1S,4R,6R,13S,17R)-[4-Cyclobutanesulfonylaminocarbonyl-17-(7-methoxy-2-phenylquinolin-4-yloxy)-2,14-dioxo-3,15-diazatricyclo[13.3.0.0^4,6]octa-dec-13-yl]carbamic acid tert-butyl ester]",< 50 nM,< 50 nM
"CC(C)(C)OC(=O)N[C@H]1CCCCC/C=C\[C@@H]2C[C@@]2(C(=O)NS(=O)(=O)C2CC2)NC(=O)[C@@H]2C[C@@H](Oc3ccnc4c(C(F)(F)F)cccc34)CN2C1=O [Compound 33, (1S,4R,6S,14S,18R)-7-cis-[4-Cyclopropanesulfonylaminocarbonyl-2,15-dioxo-18-(8-trifluoromethylquinol-in-4-yloxy)-3,16-diazatricyclo[14.3.0.04,6]nonadec-7-en-14-yl]-carbamic acid tert-butyl ester]",< 50 nM,< 50 nM
COc1ccc2c(O[C@@H]3C[C@H]4C(=O)N[C@]5(C(=O)NS(=O)(=O)C6CC6)C[C@H]5/C=C\CCCCC[C@H](NC(=O)OC(C)(C)C)C(=O)N4C3)cc(-c3csc(C(C)C)n3)nc2c1 [Compound 27],< 50 nM,< 50 nM
"COc1ccc2c(O[C@@H]3C[C@H]4C(=O)N[C@]5(C(=O)NS(=O)(=O)C6CC6)CC5/C=C/CC[C@H](N)C(=O)N4C3)cc(-c3ccccc3)nc2c1 (stereo partly drawn) [Compound 2, (1S 4R,6S,11S,15R)-7-trans-Cyclopropanesulfonic acid [11-amino-15-(7-methoxy-2-phenylquinolin-4-yloxy)-2,12-dioxo-3,13-diazatricyclo-[11.3.0.0^4,6]hexadec-7-ene-4-carbonyl]amide dihydrochloride]",,< 5000 nM
"COc1ccc2c(O[C@@H]3C[C@H]4C(=O)N[C@]5(C(=O)NS(=O)(=O)C6CC6)CC5/C=C\CCCCC[C@H](N)C(=O)N4C3)cc(-c3ccccc3)nc2c1 (stereo partly drawn) [Compound 10, (1S,4R,6S,14S,18R)-7-cis-Cyclopropane-sulfonic acid [14-amino-18-(7-methoxy-2-phenylquinol-in-4-yloxy)-2,15-dioxo-3,16-diazatricyclo[14.3.0.0^4,6]-nonadec-7-ene-4-carbonyl]amide dihydrochloride]",< 50 nM,< 50 nM
"COc1ccc2c(O[C@@H]3C[C@H]4C(=O)N[C@]5(C(=O)NS(=O)(=O)C6CC6)CC5/C=C/CCCC[C@H](NC(=O)OC(C)(C)C)C(=O)N4C3)cc(-c3ccccc3)nc2c1 (stereo partly drawn) [Compound 5, (1S,4R,6S,13S,17R)-7-trans-[4-Cyclopropanesul-fonylamino-carbonyl-17-(7-methoxy-2-phenylquinolin-4-yloxy)-2,14-dioxo-3,15-diazatricyclo[13.3.0.0^4,6]octa-dec-7-en-13-yl]carbamic acid tert-butyl ester]",< 50 nM,< 50 nM
"COc1ccc2c(O[C@@H]3C[C@H]4C(=O)N[C@]5(C(=O)NS(=O)(=O)C6CC6)C[C@H]5CCCCCC[C@H](NC(=O)OC(C)(C)C)C(=O)N4C3)cc(-c3ccccc3)nc2c1 [Compound 13, (1S,4R,6R,13S,17R)-[4-Cyclopropanesulfonylaminocarbonyl-17-(7-methoxy-2-phenylquinolin-4-yloxy)-2,14-dioxo-3,15-diazatricyclo[13.3.0.0^4,6]-octadec-13-yl]-carbamic acid tert-butyl ester]",< 50 nM,< 50 nM
"COc1ccc2c(O[C@@H]3C[C@H]4C(=O)N[C@]5(C(=O)NS(=O)(=O)C6CC6)CC5/C=C/CCC[C@H](N)C(=O)N4C3)cc(-c3ccccc3)nc2c1 (stereo partly drawn) [Compound 4, (1S,4R,6S,12S,16R)-7-trans-Cyclopropanesulfonic acid [12-amino-16-(7-methoxy-2-phenylquinolin-4-yloxy)-2,13-dioxo-3,14-diazatricyclo [12.3.0.0^4,6]heptadec-7-ene-4-carbonyl]amide dihydrochloride]",,< 50000 nM
